These results are taken from publication PMC6930480, “Inhibition of Porcine Aminopeptidase M (pAMP) by the Pentapeptide Microginins” (Molecules, 2019).

In this assay the target is T1, porcine aminopeptidase M (EC 3.4.11.2) (Sus scrofa, UniProt P15145).
T1 construct: purchased Sigma Aldrich; host or cells: pig kidney (tissue-derived)
T1 sequence (P15145 1-963): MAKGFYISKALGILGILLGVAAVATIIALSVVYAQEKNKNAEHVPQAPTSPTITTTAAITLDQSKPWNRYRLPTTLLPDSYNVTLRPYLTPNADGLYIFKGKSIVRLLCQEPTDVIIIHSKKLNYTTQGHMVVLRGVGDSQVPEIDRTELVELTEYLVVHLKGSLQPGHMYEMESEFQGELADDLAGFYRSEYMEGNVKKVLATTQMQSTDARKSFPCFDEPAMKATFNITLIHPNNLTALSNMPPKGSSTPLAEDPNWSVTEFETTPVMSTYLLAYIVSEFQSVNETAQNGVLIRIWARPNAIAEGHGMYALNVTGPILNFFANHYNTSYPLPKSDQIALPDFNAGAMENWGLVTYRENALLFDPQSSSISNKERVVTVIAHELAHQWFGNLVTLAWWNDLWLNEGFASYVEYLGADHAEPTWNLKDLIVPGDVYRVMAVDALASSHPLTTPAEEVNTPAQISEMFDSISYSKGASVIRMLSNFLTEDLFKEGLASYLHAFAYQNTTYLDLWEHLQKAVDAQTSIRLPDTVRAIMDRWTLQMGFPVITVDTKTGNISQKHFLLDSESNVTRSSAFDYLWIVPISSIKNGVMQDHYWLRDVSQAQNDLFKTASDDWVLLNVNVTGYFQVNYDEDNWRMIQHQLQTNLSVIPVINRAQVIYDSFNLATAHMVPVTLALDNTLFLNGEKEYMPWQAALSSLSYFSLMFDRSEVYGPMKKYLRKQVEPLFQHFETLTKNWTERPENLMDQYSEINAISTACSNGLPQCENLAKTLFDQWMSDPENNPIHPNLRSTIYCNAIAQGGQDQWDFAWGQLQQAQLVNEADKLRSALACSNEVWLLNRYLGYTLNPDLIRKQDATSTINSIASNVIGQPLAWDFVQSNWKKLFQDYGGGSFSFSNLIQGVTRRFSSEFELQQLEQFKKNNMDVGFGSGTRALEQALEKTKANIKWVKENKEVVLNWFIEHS
Description: Aminopeptidase M inhibition, spectrophotometric, L-leucine-p-nitroanilide substrate. The assay is classed as biochemical. The note with it: porcine AMP from pig kidney, 1 mU mL^-1; 0.1 M borate buffer pH 8.0; 30 min pre-incubation at 30 °C; inhibitor 0.1-10 μM; L-leucine-p-nitroanilide 1.2 mM; absorbance 405 nm; triplicate, average of three independent experiments.

Peptide text beside a SMILES is read from it.

Description: Inhibition assay spectrophotometrically performed using porcine aminopeptidase M (EC 3.4.11.2, from pig kidney—Sigma Aldrich®). After 30 min pre-incubation at 30 °C, 5 μL of the commercial aminopeptidase M enzyme (1 mU mL^−1) added to microginin solutions (concentrations of 0.1, 0.25, 0.5, 1, 5 and 10 μM). […] The final volume at the 96-well plates was 75 μL (medium composed of 0.1 M borate buffer, Ph 8.0). After 30 min pre-incubation, 30 μL of the L-leucine-p-nitroanilide substrate at the concentration of 1.2 mM were added for the microginins AMP inhibition assays. The kinetics of inhibition of AMP were determined and the reaction interrupted with the addition of 25 μL of 30% acetic acid solution.
To obtain the factor used for the calculation of specific activity, a standard curve was performed with the product of the reaction (p-nitroanilide 1 mM), obtaining the slope of the curve. Absorbance reading was performed on the Spectra Max M2-Molecular Devices® 96-well plate reader with SoftMax Pro® software version 5.3, and the p-nitroanilide product concentrations were determined by the millimolar extinction coefficient at 405 nm as 9.96 (Sigma-Aldrich). After reading the samples, the residual activity calculations performed in mU mL^−1, percentage of activity and inhibition. […]

Regarding `CCCCCCC[C@@H](N)[C@H](O)C(=O)N[C@H](C(=O)N[C@@H](CC(C)C)C(=O)N[C@@H](CCc1ccc(O)cc1)C(=O)N[C@@H](Cc1ccc(O)cc1)C(=O)O)C(C)C` [MG756, Ahda-Val-Leu-HTy-Tyr] (HELM PEPTIDE1{[CCCCCCC[C@@H](N)[C@H](O)C(=O)[*:2]].V.L.[O=C([C@H](CCc1ccc(O)cc1)N[*:1])[*:2]].Y}$$$$V2.0), the midpoint of inhibition, the IC50, lay at 3260 ± 500 nM.

For `CCCCCCC[C@@H](NC)[C@H](O)C(=O)N[C@H](C(=O)N[C@@H](CC(C)C)C(=O)N[C@@H](CCc1ccc(O)cc1)C(=O)N[C@@H](Cc1ccc(O)cc1)C(=O)O)C(C)C` [MG770, N-Me-Ahda-Val-Leu-HTy-Tyr] (HELM PEPTIDE1{[CCCCCCC[C@@H](NC)[C@H](O)C(=O)[*:2]].V.L.[O=C([C@H](CCc1ccc(O)cc1)N[*:1])[*:2]].Y}$$$$V2.0), the IC50 (in general, the point on the concentration scale where inhibition reaches its midpoint) came to 1200 ± 100 nM.
